Measurements taken from patent publication US6642216B2, “Isoprenoid pathway inhibitors for stimulating bone growth” (ZymoGenetics Corporation, priority 1996, dated 2003).

Assays:
BMP-2 promoter = test: ABA assay: BMP-2 promoter-luciferase reporter in 2T3-BMP-2-LUC osteoblast cells; assay type: cell-based, mouse
[1] = tested on: osteoprogenitor cells cloned from bone marrow stroma; conditions: Cui et al. 1996; cited from earlier work
neonatal mouse calvaria = test: Neonatal mouse calvaria assay (in vitro bone formation); assay type: cell-based; parameters: Osteoblast Number, % increase over vehicle control / New Bone Area, % increase over vehicle control: concentration or dose not given beside the values
Summary of the method: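 Frontal and parietal bones from 4-day-old ICR Swiss mice cultured ex vivo, then 3 μm sections histomorphometrically assessed. New bone area measured in one field (10× objective) in 3 sections per bone, 4 bones per group, expressed as mm^2×10^−3; osteoblasts lining bone counted at 20×, per mm bone surface.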

[2] = tested on: ICR Swiss white mice calvaria; test: In vivo murine calvarial bone growth assay; parameters: species or system mouse
Description: Male ICR Swiss white mice, aged 4-6 weeks and weighing 13-26 gm, are employed, using 4-5 mice per group. The calvarial bone growth assay is performed as described in PCT application WO 95/24211, incorporated by reference. Briefly, the test compound or appropriate control vehicle is injected into the subcutaneous tissue over the right calvaria of normal mice. Typically, the control vehicle is the vehicle in which the compound was solubilized, and is PBS containing 5% DMSO or is PBS containing Tween (2 μl/10 ml). The animals are sacrificed on day 14 and bone growth measured by histomorphometry. Bone samples for quantitation are cleaned from adjacent tissues and fixed in 10% buffered formalin for 24-48 hours, decalcified in 14% EDTA for 1-3 weeks, processed through graded alcohols; and embedded in paraffin wax. Three to five μm sections of the calvaria are prepared, and representative sections are selected for histomorphometric assessment of the effects on bone formation and bone resorption. Sections are measured by using a camera lucida attachment to trace directly the microscopic image onto a digitizing plate. Bone changes are measured on sections cut 200 μm apart, over 4 adjacent 1×1 mm fields on both the injected and noninjected sides of the calvaria. New bone is identified by its characteristic woven structure, and osteoclasts and osteoblasts are identified by their distinctive morphology. Histomorphometry software (OsteoMeasure, Osteometrix, Inc., Atlanta) is used to process digitizer input to determine cell counts and measure areas or perimeters.
The results are reported as a measurement of total bone area (and % increase in area over vehicle control), as shown below.

[3] = Experiment 3, 8.88178E μg/ml (0.002193 μM lovastatin, 0.002087 μM fluvastatin)

CC[C@H](C)C(=O)O[C@H]1C[C@@H](C)C=C2C=C[C@H](C)[C@H](CC[C@@H]3C[C@@H](O)CC(=O)O3)[C@H]21 [Lovastatin, lovastatin]
dose-dependent stimulatory effect in the ABA assay (BMP-2 promoter): dose-dependent stimulatory effect
% 59-0008 Response (BMP-2 promoter; Experiment 1, 0.195312 μg/ml): 22.840%
Fold increase over negative control (BMP-2 promoter; Experiment 1, 0.195312 μg/ml): 2.011 fold
% 59-0008 Response (BMP-2 promoter; Experiment 1, 0.390625 μg/ml): 27.830%
Fold increase over negative control (BMP-2 promoter; Experiment 1, 0.390625 μg/ml): 2.232 fold
% 59-0008 Response (BMP-2 promoter; Experiment 1, 0.78125 μg/ml): 35.220%
Fold increase over negative control (BMP-2 promoter; Experiment 1, 0.78125 μg/ml): 2.559 fold
% 59-0008 Response (BMP-2 promoter; Experiment 1, 1.5625 μg/ml): 67.080%
Fold increase over negative control (BMP-2 promoter; Experiment 1, 1.5625 μg/ml): 3.970 fold
% 59-0008 Response (BMP-2 promoter; Experiment 1, 3.125 μg/ml): 111.730%
Fold increase over negative control (BMP-2 promoter; Experiment 1, 3.125 μg/ml): 5.947 fold
% 59-0008 Response (BMP-2 promoter; Experiment 1, 6.25 μg/ml): 126.230%
Fold increase over negative control (BMP-2 promoter; Experiment 1, 6.25 μg/ml): 6.589 fold
% 59-0008 Response (BMP-2 promoter; Experiment 1, 12.5 μg/ml): 153.790%
Fold increase over negative control (BMP-2 promoter; Experiment 1, 12.5 μg/ml): 7.809 fold
% 59-0008 Response (BMP-2 promoter; Experiment 1, 25 μg/ml): 144.730%
Fold increase over negative control (BMP-2 promoter; Experiment 1, 25 μg/ml): 7.408 fold
% 59-0008 Response (BMP-2 promoter; Experiment 1, 50 μg/ml): −22.510%
Fold increase over negative control (BMP-2 promoter; Experiment 1, 50 μg/ml): 0.003 fold
% 59-0008 Response (BMP-2 promoter; Experiment 1, 200 μg/ml): −22.650%
Fold increase over negative control (BMP-2 promoter; Experiment 1, 200 μg/ml): −0.003 fold
% 59-0008 Response (BMP-2 promoter; Experiment 3, 0.002842 μg/ml): 1.050%
Fold increase over negative control (BMP-2 promoter; Experiment 3, 0.002842 μg/ml): 1.032 fold
% 59-0008 Response (BMP-2 promoter; Experiment 3, 0.009094 μg/ml): 2.720%
Fold increase over negative control (BMP-2 promoter; Experiment 3, 0.009094 μg/ml): 1.083 fold
% 59-0008 Response (BMP-2 promoter; Experiment 3, 0.029103 μg/ml): 1.550%
Fold increase over negative control (BMP-2 promoter; Experiment 3, 0.029103 μg/ml): 1.048 fold
% 59-0008 Response (BMP-2 promoter; Experiment 3, 0.093132 μg/ml): 3.210%
Fold increase over negative control (BMP-2 promoter; Experiment 3, 0.093132 μg/ml): 1.099 fold
% 59-0008 Response (BMP-2 promoter; Experiment 3, 0.298023 μg/ml): 10.860%
Fold increase over negative control (BMP-2 promoter; Experiment 3, 0.298023 μg/ml): 1.333 fold
% 59-0008 Response (BMP-2 promoter; Experiment 3, 0.953674 μg/ml): 35.300%
Fold increase over negative control (BMP-2 promoter; Experiment 3, 0.953674 μg/ml): 2.083 fold
% 59-0008 Response (BMP-2 promoter; Experiment 3, 3.051757 μg/ml): 103.260%
Fold increase over negative control (BMP-2 promoter; Experiment 3, 3.051757 μg/ml): 4.169 fold
% 59-0008 Response (BMP-2 promoter; Experiment 3, 9.765625 μg/ml): 148.030%
Fold increase over negative control (BMP-2 promoter; Experiment 3, 9.765625 μg/ml): 5.543 fold
% 59-0008 Response (BMP-2 promoter; Experiment 3, 31.25 μg/ml): 166.770%
Fold increase over negative control (BMP-2 promoter; Experiment 3, 31.25 μg/ml): 6.118 fold
% 59-0008 Response (BMP-2 promoter; [3]): 0.620%
Fold increase over negative control (BMP-2 promoter; [3]): 1.019 fold
triglyceride vesicles accumulated on dexamethasone treatment [1]: diminished triglyceride vesicles
inducing bone formation, compared with BMP-2 and bFGF (neonatal mouse calvaria): as good as, or better than
New Bone Area (neonatal mouse calvaria; Experiment 3, 3 days): 8.2 mm^2 × 10^−3
New Bone Area, % increase over vehicle control (neonatal mouse calvaria; Experiment 3, 3 days): 182%
Osteoblast Number (neonatal mouse calvaria; Experiment 3, 3 days): 128 Obs/field
Osteoblast Number, % increase over vehicle control (neonatal mouse calvaria; Experiment 3, 3 days): 152%
% increase in total bone area over vehicle control ([2]; 0.1 mg/kg/day): 0%
Total Bone Area ([2]; 0.1 mg/kg/day): 162 μm^2
% increase in total bone area over vehicle control ([2]; 1 mg/kg/day): 41%
Total Bone Area ([2]; 1 mg/kg/day): 237 μm^2
% increase in total bone area over vehicle control ([2]; 5 mg/kg/day): 40%
Total Bone Area ([2]; 5 mg/kg/day): 235 μm^2
% increase in total bone area over vehicle control ([2]; 10 mg/kg/day): 42%
Total Bone Area ([2]; 10 mg/kg/day): 239 μm^2
bone stimulatory effect compared with 12.5 μg/kg/day bFGF ([2]; 10 mg/kg/day): comparable
effect on total bone area ([2]; varying doses): dose-dependent increase in total bone area
